Laboratory results as given in US10597388B2, “Pyridazinone herbicides” (FMC CORPORATION, priority 2014, dated 2020).

Tests used:
Test in all cases: Test D controlled growth environment herbicide test, pre- and postemergence
Format in all cases: in vivo
[1] = system: blackgrass (Alopecurus myosuroides)
Source text: (§1) Seeds of plant species selected from bluegrass (annual bluegrass, Poa annua), blackgrass (Alopecurus myosuroides), Canada thistle (Cirsium arvense), canarygrass (Phalaris minor), chickweed (common chickweed, Stellaria media), geranium, cutleaf (cutleaf geranium, Geranium dissectum), galium (catchweed bedstraw, Galium aparine), bromegrass, downy (downy bromegrass, Bromus tectorum), field poppy (Papaver rhoeas), field violet (Viola arvensis), foxtail, green (green foxtail, Setaria viridis), deadnettle (henbit deadnettle, Lamium amplexicaule), ryegrass, Italian (Italian ryegrass, Lolium multiflorum), kochia (Kochia scoparia), lambsquarters (Chenopodium album), oilseed rape (Brassica napus), pigweed (Amaranthus retroflexus), chamomile (scentless chamomile, Matricaria inodora), Russian thistle (Salsola kali), speedwell (bird's-eye speedwell, Veronica persica), barley, spring (spring barley, Hordeum vulgare), wheat, spring (spring wheat, Triticum aestivum), buckwheat, wild (wild buckwheat, Polygonum convolvulus), mustard, wild (wild mustard, Sinapis arvensis), oat, wild (wild oat, Avena fatua), radish, wild (wild radish, Raphanus raphanistrum), windgrass (Apera spica-venti), barley, winter (winter barley, Hordeum vulgare), and wheat, winter (winter wheat, Triticum aestivum) were planted into a silt loam soil and treated preemergence with test chemicals formulated in a non-phytotoxic solvent mixture which included a surfactant.
(§2) At the same time, these species were planted in pots containing Redi-Earth® planting medium (Scotts Company, 14111 Scottslawn Road, Marysville, Ohio 43041) comprising spaghnum peat moss, vermiculite, wetting agent and starter nutrients and treated with postemergence applications of the test chemicals formulated in the same manner. Plants ranged in height from 2 to 18 cm (1- to 4-leaf stage). Treated plants and controls were maintained in a controlled growth environment for 14 to 21 d after which time all species were compared to controls and visually evaluated. Plant response ratings, summarized in Table D, are based on a scale of 0 to 100 where 0 is no effect and 100 is complete control. A dash (-) response means no test result.

[2] = system: barley, winter (winter barley, Hordeum vulgare)
Source text: as §1, §2

[3] = system: ryegrass, Italian (Italian ryegrass, Lolium multiflorum)
Source text: as §1, §2

[4] = system: galium (catchweed bedstraw, Galium aparine)
Source text: as §1, §2

[5] = system: windgrass (Apera spica-venti)
Source text: as §1, §2

[6] = system: chickweed (common chickweed, Stellaria media)
Source text: as §1, §2

[7] = system: speedwell (bird's-eye speedwell, Veronica persica)
Source text: as §1, §2

kochia (Kochia scoparia) = system: kochia (Kochia scoparia)
Source text: as §1, §2

[8] = system: wheat, winter (winter wheat, Triticum aestivum)
Source text: as §1, §2

[9] = system: lambsquarters (Chenopodium album)
Source text: as §1, §2

[10] = system: deadnettle (henbit deadnettle, Lamium amplexicaule)
Source text: as §1, §2

[11] = system: foxtail, green (green foxtail, Setaria viridis)
Source text: as §1, §2

[12] = system: pigweed (Amaranthus retroflexus)
Source text: as §1, §2

[13] = Postemergence, 31 g ai/ha, scale 0 to 100 (0 no effect, 100 complete control)
[14] = Postemergence, 125 g ai/ha, visual rating on scale 0 (no effect) to 100 (complete control), 14 to 21 d
[15] = Postemergence, 250 g ai/ha, scale 0 to 100 (0 no effect, 100 complete control)
[16] = Preemergence, 62 g ai/ha, scale 0 to 100 (0 no effect, 100 complete control)
[17] = Preemergence, 125 g ai/ha, scale 0 to 100 (0 no effect, 100 complete control)
[18] = Preemergence, 250 g ai/ha, scale 0 to 100 (0 no effect, 100 complete control)
[19] = postemergence, 62 g ai/ha, scale 0 to 100, 0 no effect, 100 complete control

With `COc1nn(C)c(=O)c(-c2c(C)ccc3ccccc23)c1OC(=O)OC(C)C` [Compound 36] the “Blackgrass plant response rating” value [1, 13] was 25, the “Plant response rating, Blackgrass” value [1, 14] was 45 and the “Plant response rating, Blackgrass” value [1, 15] was 70. For the same compound, the “Plant response rating (scale of 0 to 100), Blackgrass” value ([1]; Preemergence, 31 g ai/ha) was 15, the “Plant response rating, Blackgrass” value [1, 16] was 30 and the “Plant response rating, Blackgrass” value [1, 17] was 35. For the same compound, the “Blackgrass plant response rating” value [1, 18] was 50, the “Plant response rating, Blackgrass” value [1, 19] was 35 and the “Plant response rating, Barley, Winter” value [2, 13] was 0. The “Plant response rating, Barley, Winter” value [2, 14] was 5, the “Plant response rating, Barley, Winter” value [2, 15] was 10 and the “Plant response rating (scale of 0 to 100), Barley, Winter” value ([2]; Preemergence, 31 g ai/ha) was 0. For the same compound, the “Plant response rating, Barley, Winter” value [2, 16] was 0, the “Plant response rating, Barley, Winter” value [2, 17] was 0 and the “Barley, Winter plant response rating” value [2, 18] was 0. The “Plant response rating, Barley, Winter” value [2, 19] was 0, the “Ryegrass, Italian plant response rating” value [3, 13] was 75 and the “Plant response rating, Ryegrass, Italian” value [3, 14] was 90. For the same compound, the “Plant response rating, Ryegrass, Italian” value [3, 15] was 90, the “Plant response rating (scale of 0 to 100), Ryegrass, Italian” value ([3]; Preemergence, 31 g ai/ha) was 20 and the “Plant response rating, Ryegrass, Italian” value [3, 16] was 65. For the same compound, the “Plant response rating, Ryegrass, Italian” value [3, 17] was 70, the “Plant response rating, Ryegrass, Italian” value [3, 18] was 70 and the “Plant response rating, Ryegrass, Italian” value [3, 19] was 80. The “Galium plant response rating” value [4, 13] was 100, the “Plant response rating, Galium” value [4, 14] was 100 and the “Plant response rating, Galium” value [4, 15] was 100. For the same compound, the “Plant response rating (scale of 0 to 100), Galium” value ([4]; Preemergence, 31 g ai/ha) was 0, the “Plant response rating, Galium” value [4, 16] was 20 and the “Plant response rating, Galium” value [4, 17] was 75. The “Plant response rating, Galium” value [4, 18] was 85, the “Plant response rating, Galium” value [4, 19] was 100 and the “Windgrass plant response rating” value [5, 13] was 40. For the same compound, the “Plant response rating, Windgrass” value [5, 14] was 70, the “Plant response rating, Windgrass” value [5, 15] was 75 and the “Plant response rating (scale of 0 to 100), Windgrass” value ([5]; Preemergence, 31 g ai/ha) was 0. The “Plant response rating, Windgrass” value [5, 16] was 5, the “Plant response rating, Windgrass” value [5, 17] was 5 and the “Plant response rating, Windgrass” value [5, 18] was 65. For the same compound, the “Plant response rating, Windgrass” value [5, 19] was 50, the “Chickweed plant response rating” value [6, 13] was 100 and the “Plant response rating, Chickweed” value [6, 14] was 100. The “Plant response rating, Chickweed” value [6, 15] was 100, the “Plant response rating (scale of 0 to 100), Chickweed” value ([6]; Preemergence, 31 g ai/ha) was 95 and the “Plant response rating, Chickweed” value [6, 16] was 95. The “Plant response rating, Chickweed” value [6, 17] was 100, the “Plant response rating, Chickweed” value [6, 18] was 100 and the “Plant response rating, Chickweed” value [6, 19] was 100. The “Speedwell plant response rating” value [7, 13] was 60, the “Plant response rating, Speedwell” value [7, 14] was 100 and the “Plant response rating, Speedwell” value [7, 15] was 100. For the same compound, the “Plant response rating (scale of 0 to 100), Speedwell” value ([7]; Preemergence, 31 g ai/ha) was 95, the “Plant response rating, Speedwell” value [7, 16] was 100 and the “Plant response rating, Speedwell” value [7, 17] was 100. For the same compound, the “Plant response rating, Speedwell” value [7, 18] was 100, the “Plant response rating, Speedwell” value [7, 19] was 90 and the “Kochia plant response rating” value (kochia (Kochia scoparia); [13]) was 85. The “Plant response rating, Kochia” value (kochia (Kochia scoparia); [14]) was 100, the “Plant response rating, Kochia” value (kochia (Kochia scoparia); [15]) was 100 and the “Plant response rating (scale of 0 to 100), Kochia” value (kochia (Kochia scoparia); Preemergence, 31 g ai/ha) was 0. For the same compound, the “Plant response rating, Kochia” value (kochia (Kochia scoparia); [16]) was 25, the “Plant response rating, Kochia” value (kochia (Kochia scoparia); [17]) was 45 and the “Plant response rating, Kochia” value (kochia (Kochia scoparia); [18]) was 60. For the same compound, the “Plant response rating, Kochia” value (kochia (Kochia scoparia); [19]) was 95, the “Wheat, Winter plant response rating” value [8, 13] was 0 and the “Plant response rating, Wheat, Winter” value [8, 14] was 5. For the same compound, the “Plant response rating, Wheat, Winter” value [8, 15] was 15, the “Plant response rating (scale of 0 to 100), Wheat, Winter” value ([8]; Preemergence, 31 g ai/ha) was 0 and the “Plant response rating, Wheat, Winter” value [8, 16] was 0. For the same compound, the “Plant response rating, Wheat, Winter” value [8, 17] was 0, the “Plant response rating, Wheat, Winter” value [8, 18] was 0 and the “Plant response rating, Wheat, Winter” value [8, 19] was 0. For the same compound, the “Lambsquarters plant response rating” value [9, 13] was 95, the “Plant response rating, Lambsquarters” value [9, 14] was 100 and the “Plant response rating, Lambsquarters” value [9, 15] was 100. For the same compound, the “Plant response rating (scale of 0 to 100), Lambsquarters” value ([9]; Preemergence, 31 g ai/ha) was 75, the “Plant response rating, Lambsquarters” value [9, 16] was 95 and the “Plant response rating, Lambsquarters” value [9, 17] was 75. For the same compound, the “Plant response rating, Lambsquarters” value [9, 18] was 95, the “Plant response rating, Lambsquarters” value [9, 19] was 95 and the “Deadnettle plant response rating” value [10, 13] was 80. The “Plant response rating, Deadnettle” value [10, 14] was 100, the “Plant response rating, Deadnettle” value [10, 15] was 100 and the “Plant response rating (scale of 0 to 100), Deadnettle” value ([10]; Preemergence, 31 g ai/ha) was 0. The “Plant response rating, Deadnettle” value [10, 16] was 0, the “Plant response rating, Deadnettle” value [10, 17] was 50 and the “Plant response rating, Deadnettle” value [10, 18] was 85. The “Plant response rating, Deadnettle” value [10, 19] was 100, the “Foxtail, Green plant response rating” value [11, 13] was 35 and the “Plant response rating, Foxtail, Green” value [11, 14] was 80. For the same compound, the “Plant response rating, Foxtail, Green” value [11, 15] was 90, the “Plant response rating (scale of 0 to 100), Foxtail, Green” value ([11]; Preemergence, 31 g ai/ha) was 45 and the “Plant response rating, Foxtail, Green” value [11, 16] was 25. The “Plant response rating, Foxtail, Green” value [11, 17] was 70, the “Plant response rating, Foxtail, Green” value [11, 18] was 75 and the “Plant response rating, Foxtail, Green” value [11, 19] was 45. The “Pigweed plant response rating” value [12, 13] was 100, the “Plant response rating, Pigweed” value [12, 14] was 100 and the “Plant response rating, Pigweed” value [12, 15] was 100. For the same compound, the “Plant response rating (scale of 0 to 100), Pigweed” value ([12]; Preemergence, 31 g ai/ha) was 55, the “Plant response rating, Pigweed” value [12, 16] was 75 and the “Plant response rating, Pigweed” value [12, 17] was 100. For the same compound, the “Plant response rating, Pigweed” value [12, 18] was 100 and the “Plant response rating, Pigweed” value [12, 19] was 100.
